Test results taken from patent publication US6632816B1, “Aromatic derivatives as HIV aspartyl protease inhibitors” (Pharmacor Inc., priority 2002, dated 2003).
Like-named read-outs stand apart in the source and are kept apart here.

How the values were obtained:
HIV protease = HIV protease (Human immunodeficiency virus type 1 group M subtype B, UniProt P04585); assay: biochemical
From the text: Enzymatic Assay for Determining the Inhibition Constant (Ki) of Synthetic Compounds Targeting the HIV Protease
This is a fluorometric assay based on the cleavage by protease of a substrate carrying a donor group (EDANS) and an acceptor group (DABCYL) on each side of the cleavage site, interacting together through fluorescence resonance energy transfer (FRET) as described by Matayoshi et al. (Science 247:954-954, 1990).
After calculation of Vo and Vi, the inhibition constant (Ki) of the compound is determined using the equation of Henderson: [formula]
where Vo=the enzyme's initial velocity
Vi=the enzyme velocity in the presence of the inhibitory compound,
[I]=inhibitor concentration, [S]=substrate concentration,
Km=Michaelis-Menten constant and Kiapp=apparent Ki
Graphs are traced and the Ki determined using GraphPad Prism software v.

[1] = test system: HIV-1 laboratory viral strain NL4.3 (wild type virus); assay: Anti-viral assay in vitro (MTT, infected MT-4 cells); format: cell-based; details: Human immunodeficiency virus 1, MT4, 144 h
Experimental: Anti-viral and Cytotoxicity Assays In Vitro
To evaluate the EC50 of our compounds, various drug concentrations are incubated with the infected cell for six days and then the metabolic activity of the cells is monitored by the MTT assay. (See A. J. Japour et al, Antimicrobial Agents and Chemotherapy, 37, 1095-1101, 1993 and R. Pauwels et al. Journal of Virological Methods, 20, 309-321, 1988)
We use the laboratory viral strain NL4.3 as wild type virus and the cell line used is MT-4 which is a T-cell line highly sensitive to HIV-1. We also use some WT clinical strains. To address the resistance issue we assay the inhibitors with NL4.3 mutants which are designed to be resistant to specific commercially,available inhibitors

[2] = MT-4 cells infected with NL4.3, six days, MTT assay, read-out: EC50

| SMILES | Ki (HIV protease) [nM] | EC50 [1, 2] [nM] | EC50 [1] [nM] |
| --- | --- | --- | --- |
| CC(C)CN([C@H](CO)CCCCNC(=O)[C@H](Cc1ccc2ccccc2c1)NC(=O)N1CCOCC1)S(=O)(=O)c1ccc(N)cc1 [Example 33, (1S,5S)-Morpholine-4-carboxylic Acid (1-{5-[(4-Amino-benzenesulfonyl)-isobutyl-amino]-6-hydroxy-hexylcarbamoyl}-2-naphthalen-2-yl-ethyl)-amide] | 0.8 | 92 | – |
| COC(=O)N[C@H](C(=O)NCCCC[C@@H](CO)N(CC(C)C)S(=O)(=O)c1ccc(N)cc1)C(c1ccccc1)c1ccccc1 [Example 34, (1S,5S)-(1-{5-[(4-Amino-benzenesulfonyl)-isobutyl-amino]-6-hydroxy-hexylcarbamoyl}-2,2-diphenyl-ethyl)-carbamic Acid Methyl Ester] | 0.5 | 12 | – |
| COc1ccc(S(=O)(=O)N(CC(C)C)[C@H](CO)CCCCNC(=O)[C@H](Cc2ccc3ccccc3c2)NC(=O)N2CCOCC2)cc1 [Example 35, (1S,5S)-Morpholine-4-carboxylic Acid (1-{6-Hydroxy-5-[isobutyl-(4-methoxy-benzenesulfonyl)-amino]-hexylcarbamoyl}-2-naphthalen-2-yl-ethyl)-amide] | 1.3 | – | 275 |
| COC(=O)N[C@@H](Cc1ccccc1-c1ccc(OC)cc1)C(=O)NCCCC[C@@H](CO)N(CC(C)C)S(=O)(=O)c1ccc(OC)cc1 [Example 36, (1S,5S)-[1-{6-Hydroxy-5-[isobutyl-(4-methoxy-benzenesulfonyl)-amino]-hexylcarbamoyl}-2-(4′-methoxy-biphenyl-2-yl)-ethyl]-carbamic Acid Methyl Ester] | 3.2 | – | 2180 |
| CC(C)CN(C(CO)CCCCNC(=O)C(Cc1ccc2ccccc2c1)NC(=O)C1CCOC1)S(=O)(=O)c1ccc(N)cc1 [Example 37, (1S,3R,S,5S)-Tetrahydro-furan-3-carboxylic Acid (1-{5-[(4-Amino-benzenesulfonyl)-isobutyl-amino]-6-hydroxy-hexylcarbamoyl}-2-naphthalen-2-yl-ethyl)-amide] | 2.7 | 325 | – |
| COc1ccc(-c2ccccc2C[C@H](NC(=O)N2CCOCC2)C(=O)NCCCC[C@@H](CO)N(CC(C)C)S(=O)(=O)c2ccc(N)cc2)cc1 [Example 38, (1S,5S)-Morpholine-4-carboxylic Acid [1-{5-[(4-Amino-benzenesulfonyl)-isobutyl-amino]-6-hydroxy-hexylcarbamoyl}-2-(4′-methoxy-biphenyl-2-yl)-ethyl]-amide] | 0.533 | 93 | – |
| COC(=O)N[C@@H](Cc1ccccc1-c1ccccc1)C(=O)NCCCC[C@@H](CO)N(CC(C)C)S(=O)(=O)c1ccc(N)cc1 [Example 39, (1S,5S)-(1-{5-[(4-Amino-benzenesulfonyl)-isobutyl-amino]-6-hydroxy-hexylcarbamoyl}-2-biphenyl-2-yl-ethyl)-carbamic Acid Methyl Ester] | 0.521 | 200 | – |
| CC(C)CN([C@H](CO)CCCCNC(=O)[C@@H](NC(=O)N1CCOCC1)C(c1ccccc1)c1ccccc1)S(=O)(=O)c1ccc(N)cc1 [Example 40, (1S,5S)-Morpholine-4-carboxylic Acid (1-{5-[(4-Amino-benzenesulfonyl)-isobutyl-amino]-6-hydroxy-hexylcarbamoyl}-2,2-diphenyl-ethyl)-amide] | 0.512 | 78 | – |
| CC(C)CN([C@H](CO)CCCCNC(=O)[C@H](Cc1ccc2ccccc2c1)NC(=O)N(C)C)S(=O)(=O)c1ccc(N)cc1 [Example 41, (2S,5S)-N-{5-[(4-Amino-benzenesulfonyl)-isobutyl-amino]-6-hydroxy-hexyl}-2-(3,3-dimethyl-ureido)-3-naphthalen-2-yl-propionamide] | 1.1 | 79 | – |
| CC(C)CN([C@H](CO)CCCCNC(=O)[C@H](Cc1ccccc1-c1ccccc1)NC(=O)N1CCOCC1)S(=O)(=O)c1ccc(N)cc1 [Example 43, (1S,5S)-Morpholine-4-carboxylic Acid (1-{5-[(4-Amino-benzenesulfonyl)-isobutyl-amino]-6-hydroxy-hexylcarbamoyl}-2-biphenyl-2-yl-ethyl)-amide] | 0.598 | 697 | – |
| CC(C)CN([C@H](CO)CCCCNC(=O)[C@H](Cc1cccc2ccccc12)NC(=O)N1CCOCC1)S(=O)(=O)c1ccc(N)c(Cl)c1 [Example 44, (1S,5S)-Morpholine-4-carboxylic Acid (1-{5-[(4-Amino-3-chloro-benzenesulfonyl)-isobutyl-amino]-6-hydroxy-hexylcarbamoyl}-2-naphthalen-1-yl-ethyl)-amide] | 0.904 | 134 | – |
| COc1ccc(S(=O)(=O)N(CC(C)C)[C@H](CO)CCCCNC(=O)[C@H](Cc2cccc3ccccc23)NC(=O)N2CCOCC2)cc1 [Example 45, (1S,5S)-Morpholine-4-carboxylic Acid (1-{6-Hydroxy-5-[isobutyl-(4-methoxy-benzenesulfonyl)-amino]-hexylcarbamoyl}-2-naphthalen-1-yl-ethyl)-amide] | 1.5 | 597 | – |
| CC(C)CN([C@H](CO)CCCCNC(=O)[C@H](Cc1ccc2ccccc2c1)NC(=O)C(C)(C)C)S(=O)(=O)c1ccc(N)cc1 [Example 46, (1S,5S)-N-(1-{5-[(4-Amino-benzenesulfonyl)-isobutyl-amino]-6-hydroxy-hexylcarbamoyl}-2-naphthalen-2-yl-ethyl)-2,2-dimethyl-propionamide] | 0.809 | 167 | – |
| CC(C)CN([C@H](CO)CCCCNC(=O)[C@H](Cc1ccc2ccccc2c1)NC(=O)C1CC1)S(=O)(=O)c1ccc(N)cc1 [Example 47, (1S,5S)-Cyclopropanecarboxylic Acid (1-{5-[(4-Amino-benzenesulfonyl)-isobutyl-amino]-6-hydroxy-hexylcarbamoyl}-2-naphthalen-2-yl-ethyl)-amide] | 1.4 | 323 | – |
| CC(=O)N[C@@H](Cc1ccc2ccccc2c1)C(=O)NCCCC[C@@H](CO)N(CC(C)C)S(=O)(=O)c1ccc(N)cc1 [Example 48, (2S,5S)-2-Acetylamino-N-{5-[(4-amino-benzenesulfonyl)-isobutyl-amino]-6-hydroxy-hexyl}-3-naphthalen-2-yl-propionamide] | 3.6 | 948 | – |
| COC(=O)N[C@H](C(=O)NCCCC[C@@H](CO)N(CC(C)C)S(=O)(=O)c1ccc(N)c(Cl)c1)C(c1ccccc1)c1ccccc1 [Example 50, (1S,5S)-(1-{5-[(4-Amino-3-chloro-benzenesulfonyl)-isobutyl-amino]-6-hydroxy-hexylcarbamoyl}-2,2-diphenyl-ethyl)-carbamic Acid Methyl Ester] | 0.776 | 95 | – |
| CC(C)CN([C@H](CO)CCCCNC(=O)[C@H](Cc1ccc2ccccc2c1)NC(=O)N1CCOCC1)S(=O)(=O)c1ccc(N)c(Cl)c1 [Example 51, (1S,5S)-Morpholine-4-carboxylic Acid (1-{5-[(4-Amino-3-chloro-benzenesulfonyl)-isobutyl-amino]-6-hydroxy-hexylcarbamoyl}-2-naphthalen-2-yl-ethyl)-amide] | 0.8 | 194 | – |
| COC(=O)N[C@@H](Cc1ccccc1-c1cccc(F)c1)C(=O)NCCCC[C@@H](CO)N(CC(C)C)S(=O)(=O)c1ccc(N)cc1 [Example 52, (1S,5S)-[1-{5-[(4-Amino-benzenesulfonyl)-isobutyl-amino]-6-hydroxy-hexylcarbamoyl}-2-(3′-fluoro-biphenyl-2-yl)-ethyl]-carbamic Acid Methyl Ester] | 0.7 | 152 | – |
